From patent US9708628B2, “Cationic lipid having improved intracellular kinetics” (NOF CORPORATION, priority 2011, dated 2017)
Entries after “also recorded” stand apart in the source; their conditions may differ.

What was measured:
HT1080 cells [1] = assay: Intracellular uptake amount of MEND (NBD-DOPE labeled lipid, FACS); type: cell-based; conditions: NBD-DOPE label, lipid 27.5 nmol/well, 1 hr, DMEM (FBS+)
Method: Using B-2 (Example 1), B-2-1 (Comparative Example 1), and DODAP (Comparative Example 2) as cationic lipids, MENDs having a composition of cationic lipid:SOPE:Chol=3:4:3 were prepared by the method described in [Experimental Example 1] (2). For the preparation, PEG2000DSG was used as PEG lipid, and MEND solutions corresponding to 0.55 mM of the lipid concentration were prepared. For cationic MEND, lipids having a composition of DOTAP (Comparative Example 3):DOPE:Chol:=3:4:3 were used, and the cationic MEND was prepared according to the method described in [Experimental Example 1] (3). The lipids of various MENDs were labeled with fluorescence according to the method described in [Experimental Example 1] (5).
(§1) HT1080 cells were plated on a 6-well plate at 2×10^5 cells/2 mL/well 24 hr before, various sample MENDs were diluted with DMEM (FBS+) to a lipid concentration of 27.5 nmol/l mL/well and transfected into the well. After 1 hr, MEND-containing DMEM was removed, and the cells were washed twice with heparin (20 units/mL, 1 mL), and further once with PBS(−) (1 mL). 0.05% Trypsin solution (500 μL) was added, and the mixture was stood in an incubator at 37° C. for 3 min. […] The suspension was passed through a 44 μm nylon mesh immediately before the measurement, and the fluorescence intensity of intracellular NBD was measured.

[2] = tested on: Rabbit Reticulocyte Lysate Systems; assay: Influence on in vitro translation reaction (luciferase mRNA); type: biochemical; conditions: MEND 0.0625-0.25 μg per 1 μL mRNA solution, 30° C., 90 min
Method: MENDs having a composition of B-2:SOPE:Chol=5:3:2 were prepared by the method described in [Experimental Example 1] (2). For the preparation, PEG2000-DMG was used as PEG lipid, and MEND solutions corresponding to 0.55 mM of the lipid concentration were prepared. For cationic MEND, lipids having a composition of DOTAP:DOPE:Chol:=3:4:3 were used, and the cationic MEND was prepared according to the method described in [Experimental Example 1] (3).
Luciferase-mRNA solution was diluted to 0.005 μg/μL. Various MEND solutions were added in 0.0625, 0.125, 0.25 μg relative to 1 μL of mRNA solution to adjust the total amount to 6.5 μL. A mixture of RRL (Rabbit Reticulocyte Lysate, 17.5 μL), AAM (Amino Acid Mixture)-Met (0.25 μL), AAM-Leu (0.25 μL), and RRI (Recombinant RNase Inhibitor, 0.5 μL) was added, and the mixture was stood at 30° C. for 90 min.
10 μL thereof was mixed with a Luciferase assay substrate (50 μL), and the luciferase activity in a given time was measured by a luminometer. […] Thereafter, the absorbance at 562 nm was measured, and the protein amount of the sample was calculated from the absorbance of a BSA solution having a known concentration. The luciferase activity (RLU) was adjusted by dividing with protein amount (mg), and the luciferase activity per cellular protein amount (RLU/mg protein) was calculated.

HT1080 cells [3] = assay: Inhibitory effect of retinoic acid (RA) on gene expression; type: cell-based; conditions: 0, 5, 7.5, 10 μM RA
Method: MENDs of B-2-4 (Example 4), B-2 (Example 1) were prepared according to [Experimental Example 1] (1), (2), [Experimental Example 18]. For the preparation, PEG2000-DMG was used as PEG lipid, and MEND solutions corresponding to 0.55 mM of the lipid concentration were prepared.
HT1080 cells were plated on a 3.5 cm cell culture dish at 4×10^4 cells/2 mL/dish 24 hr before, various MENDs were diluted with DMEM (FBS 10%+, Phenol red free) containing a final concentration 200 μM of D-luciferin potassium and 0, 5, 7.5, 10 μM RA (sigma) to achieve 1.6 μg/2 mL/dish based on the pDNA amount and transfection was performed. According to the Kronos Dio package insert, the luminescence amount was measured for 2 min every 20 min and taken as the luciferase activity (RLU/2 min).

HT1080 cells [4] = assay: Time-course of intracellular uptake amount of MEND (Cy5-labeled pDNA, FACS); type: cell-based; conditions: pDNA 1.6 μg/2 mL/well; 1, 3, 6 hr
Method: MENDs of B-2-4 (Example 4), B-2 (Example 1) were prepared according to [Experimental Example 1] (1), (2), [Experimental Example 15]. For the preparation, PEG2000-DMG was used as PEG lipid, and MEND solutions corresponding to 0.55 mM of the lipid concentration were prepared. For cationic MEND, lipids having a composition of DOTAP (Comparative Example 3):DOPE:Chol:=3:4:3 were used, and the cationic MEND was prepared according to the method described in [Experimental Example 1] (3). pDNA was labeled with fluorescence according to the method described in [Experimental Example 15] (2).
as §1, with “a pDNA” for “a lipid”, “of 1.6 μg/2” for “of 27.5 nmol/l”, “After 1, 3, 6” for “After 1”, “the cells were” for “the mixture was”, “min. DMEM (FBS+) (1 mL) was added and the mixture was centrifuged (700 g, 4° C., 5 min). The supernatant was removed and the cells were suspended in FACS buffer (1 mL).” for “min.”, “intracellular Cy5” for “intracellular NBD”

Row | SMILES | intracellular uptake amount of MEND (HT1080 cells [1]) | inhibitory effect on in vitro translation reaction [2] | gene expression activity in presence of RA (HT1080 cells [3]) | intracellular uptake amount (Cy5-labeled pDNA) (HT1080 cells [4])
1 | CCCCCCCC/C=C\CCCCCCCC(=O)OCC(CN(C)C)OC(=O)CCCCCCC/C=C\CCCCCCCC (centres unmarked) [DODAP, reference compound] | extremely low as compared to the MENDs using B-2-1 and DOTAP | – | – | –
2 | CCCCCCCC/C=C\CCCCCCCC(=O)OCC(C[N+](C)(C)C)OC(=O)CCCCCCC/C=C\CCCCCCCC (centres unmarked) [DOTAP, reference compound] | – | significant inhibitory effect | – | –
3 | CC1=C(/C=C/C(C)=C/C=C/C(C)=C/C(=O)OCCCN(C)CCSSCCN(C)CCCOC(=O)/C=C(C)/C=C/C=C(C)/C=C/C2=C(C)CCCC2(C)C)C(C)(C)CCC1 [Example B-2-4] | – | – | decreased by RA in a concentration dependent manner | low as compared to the MENDs using DOTAP; also recorded: more highly uptaken than B-2
4 | CCCCCCCCCCCCCC(=O)OCCCN(C)CCSSCCN(C)CCCOC(=O)CCCCCCCCCCCCC [Example B-2] | extremely low as compared to the MENDs using B-2-1 and DOTAP | not observed | not decreased | low as compared to the MENDs using DOTAP
